From patent US20120277165A1, “METHODS OF MODULATING FUCOSYLATION OF GLYCOPROTEINS” (priority 2009, published 2012)

Assays:
[1] = test system: Lec 13.6 A cells (CHO cells deficient in GDP-mannose 4,6, dehydratase) expressing CTLA4Ig; assay: Degree of core fucosylation of glycans on secreted CTLA4Ig (PNGase F, MALDI mass spectrometry); assay type: cell-based, Chinese hamster; settings: CTLA4Ig from Lec 13.6A cells
Method: (§1) The levels of GDP-fucose levels and the degree of protein fucosylation on glycoproteins were analyzed for three different CHO cell lines expressing a representative secreted protein product (CTLA4Ig): CHO cells that are deficient in the enzyme GDP-mannose 4,6, dehydratase (Lec 13.6 A); CHO cells that have lowered levels of GDP-fucose (Lec 2); and wild-type CHO cells. […] Cells were harvested, and snap frozen, while culture supernatant was harvested and CTLA4Ig harvested by protein A purification for subsequent analysis. Cells were then subjected to nucleotide sugar extraction using standard methods. In short with chloroform:methanol:water (2:4:1), the pellets discarded and the resulting extraction dried down. The dried material was subsequently resuspended in 500 ul of 10% butanol in water and then extracted with 1 ml of 90% butanol in water. […] For quantification, sugar-nucletides were resolved with RP chromatography.
(§2) Protein products were isolated from culture supernatant by protein A affinity, and subjected to PNGase F treatment to remove glycans. The resulting glycans were isolated by PGC chromatography and subsequently analyzed by MALDI mass spectrometry. The % fucosylation was determined by determining the ratio of the glycans with or without core fucosylation. GDP-fucose levels are indicated in peak area as detected by UV.

[2] = test system: Lec 13.6 A cells (CHO cells deficient in GDP-mannose 4,6, dehydratase) expressing CTLA4Ig; assay: GDP-fucose levels in CHO cells (nucleotide sugar extraction, RP chromatography, UV); assay type: cell-based, Chinese hamster; settings: relative to wild-type CHO = 100
Method: as §1, §2

[3] = 0.01 mM exogenous fucose in culture media
[4] = 1 mM exogenous fucose in culture media

SMILES: C[C@H](O)[C@@H](O)[C@@H](O)[C@H](O)C=O [fucose]
- % Fucosylated Glycans [1, 3]: 45%
- % Fucosylated Glycans [1, 4]: 100%
- % of Parental GDP-fucose [2, 3]: 62.5%
- % of Parental GDP-fucose [2, 4]: 270%
